Data from PMC11497331 (Glia, 2021).

Tested on: primary microglia from wild-type (WT) mice
Format: cell-based

C=C1[C@@H](C)[C@H]2[C@H](Cc3ccccc3)NC(=O)[C@]23[C@H](OC(C)=O)/C=C/[C@@](C)(O)C(=O)[C@@H](C)C/C=C/[C@H]3[C@@H]1O [cytochalasin D, Cytochalasin D]
effect of cytochalasin D on Aβ uptake: reduced
